Consider eleven compounds from patent publication US20200369728A1, “PEPTIDOMIMETIC MACROCYCLES AND USES THEREOF” (Aileron Therapeutics, Inc., priority 2015, published 2020).

The structures appear in SMILES notation. Bridge positions count the residues as written; N and C are the ends. Square brackets hold non-standard residues; d marks the D form. Peptide text beside a SMILES is read from it. Phe(4-COOH) = N[C@@H](Cc1ccc(C(=O)O)cc1)C(=O)O; Phe(3,4-F2) = N[C@@H](Cc1ccc(F)c(F)c1)C(=O)O; 2Nal = N[C@@H](Cc1ccc2ccccc2c1)C(=O)O; R8 = C=CCCCCCC[C@@](C)(N)C(=O)O; Cba = N[C@@H](CC1CCC1)C(=O)O; S5 = C=CCCC[C@](C)(N)C(=O)O; Nle = CCCC[C@H](N)C(=O)O

One experiment deals with SJSA-1 cells. The experiment in a line: Cell lysis by peptidomimetic macrocycles (LDH release). The experiment is classed as cell-based. Particulars: SJSA-1, 1 h. Summed up: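 SJSA-1 cells plated the day before, switched to RPMI with 1% FBS, then exposed 1 h at 37 °C to macrocycle at final 50 μM to 6.25 μM in 0.5% DMSO. LDH released into the supernatant was measured by kit. Controls: 0.5% DMSO (non-lytic), 10 μM melittin and 1% Triton X-100 (lytic).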
On the technique in general: LDH in the medium is a marker of cell lysis.

A further experiment concerns Caspase 3. Briefly: Caspase 3 detection assay in SJSA1 cells. The experiment is classed as cell-based. The settings on record: SJSA1, 48 h, Caspase 3 activation over DMSO-treated cells.

As for `CC(=O)N[C@@H](CC(C)C)C(=O)N[C@H](C(=O)N[C@@H](Cc1ccccc1)C(=O)N[C@]1(C)CCCCCCC=CCCC[C@@](C)(C(=O)N[C@@H](CO)C(=O)N[C@@H](C)C(=O)N[C@@H](C)C(N)=O)NC(=O)[C@H](CC2CCC2)NC(=O)[C@H](CCC(N)=O)NC(=O)[C@H](C)NC(=O)[C@H](Cc2ccc3ccccc3c2)NC(=O)[C@H](Cc2ccc(O)cc2)NC(=O)[C@H](CCC(=O)O)NC1=O)[C@@H](C)O` [compound 254] (Ac-LTF[R8]EY[2Nal]AQ[Cba][S5]SAA-NH2; staple 4-11), in the experiment on SJSA-1 cells, the “6.25 μM % Lysed cells (1 h LDH)” value amounted to 11%, the “25 μM % Lysed cells (1 h LDH)” value was found to be 60% and the “50 μM % Lysed cells (1 h LDH)” value was found to be 75%. Further, in the experiment on Caspase 3, the “caspase 0.3 μM” value was 1, the “caspase 1 μM” value was 3, the “caspase 3 μM” value is given as 7 and the “caspase 10 μM” value came out at 14. Moreover, the “caspase 30 μM” value in the experiment on Caspase 3 was found to be 22.

In the case of `CC(=O)N[C@@H](CC(C)C)C(=O)N[C@H](C(=O)N[C@@H](Cc1ccccc1)C(=O)N[C@]1(C)CCCCCCC=CCCC[C@@](C)(C(=O)N[C@@H](CO)C(=O)NC(C)(C)C(=O)N[C@@H](C)C(=O)N[C@@H](C)C(N)=O)NC(=O)[C@H](CC(C)C)NC(=O)[C@H](CCC(N)=O)NC(=O)[C@H](C)NC(=O)[C@H](Cc2c[nH]c3ccccc23)NC(=O)[C@H](Cc2ccc(O)cc2)NC(=O)[C@H](C)NC1=O)[C@@H](C)O` (single isomer, unassigned) [compound 26], in the experiment with SJSA-1 cells, the “6.25 μM % Lysed cells (1 h LDH)” value came to 2%, the “25 μM % Lysed cells (1 h LDH)” value was −1% and the “50 μM % Lysed cells (1 h LDH)” value was found to be 0%. For the same compound, in the experiment on Caspase 3, the “caspase 0.3 μM” value amounted to 1, the “caspase 3 μM” value came out at 1, the “caspase 10 μM” value is 3 and the “caspase 30 μM” value is listed as 14.

On to `CC[C@H](C)[C@H](NC(=O)[C@H](C)NC(=O)[C@H](C)NC(=O)[C@]1(C)CCCC=CCCCCCC[C@@](C)(NC(=O)[C@H](Cc2ccccc2)NC(=O)[C@@H](NC(=O)[C@H](CC(C)C)NC(C)=O)[C@@H](C)O)C(=O)N[C@@H](CCC(=O)O)C(=O)N[C@@H](Cc2c[nH]cn2)C(=O)N[C@@H](Cc2c[nH]c3ccccc23)C(=O)N[C@@H](C)C(=O)N[C@@H](CCC(N)=O)C(=O)N[C@@H](CC(C)C)C(=O)N1)C(=O)N[C@H](C)C(N)=O` (single isomer, unassigned) [compound 223], for which, in the experiment with SJSA-1 cells, the “6.25 μM % Lysed cells (1 h LDH)” value is reported as −2%, the “25 μM % Lysed cells (1 h LDH)” value was −4% and the “50 μM % Lysed cells (1 h LDH)” value is recorded as −1%. Also, in the experiment on Caspase 3, the “caspase 0.3 μM” value is 1, the “caspase 3 μM” value is 1, the “caspase 10 μM” value was determined as 5 and the “caspase 30 μM” value is listed as 18.

For the compound `CCCC[C@H](NC(=O)[C@H](C)NC(=O)[C@H](CO)NC(=O)[C@]1(C)CCCC=CCCCCCC[C@@](C)(NC(=O)[C@H](Cc2ccccc2)NC(=O)[C@@H](NC(=O)[C@H](CC(C)C)NC(C)=O)[C@@H](C)O)C(=O)N[C@@H](CCC(=O)O)C(=O)N[C@@H](Cc2ccc(C(=O)O)cc2)C(=O)N[C@@H](Cc2c[nH]c3ccccc23)C(=O)N[C@@H](C)C(=O)N[C@@H](CCC(N)=O)C(=O)N[C@@H](CC2CCC2)C(=O)N1)C(=O)N[C@@H](C)C(N)=O` [compound 244] (Ac-LTF[R8]E[Phe(4-COOH)]WAQ[Cba][S5]SA[Nle]A-NH2; staple 4-11), in the experiment on SJSA-1 cells, the “6.25 μM % Lysed cells (1 h LDH)” value is on record as 0%, the “25 μM % Lysed cells (1 h LDH)” value came out at 0% and the “50 μM % Lysed cells (1 h LDH)” value amounted to 4%. For the same compound, in the experiment with Caspase 3, the “caspase 0.3 μM” value came out at 1, the “caspase 3 μM” value came out at 2, the “caspase 10 μM” value was 7 and the “caspase 30 μM” value was determined as 17.

For the compound `CC(=O)N[C@@H](CC(C)C)C(=O)N[C@H](C(=O)N[C@@H](Cc1ccccc1)C(=O)N[C@]1(C)CCCCCCC=CCCC[C@@](C)(C(=O)N[C@@H](CO)C(=O)N[C@H](C(=O)N[C@@H](C)C(N)=O)C(C)C)NC(=O)[C@H](CC(C)C)NC(=O)[C@H](CCC(N)=O)NC(=O)[C@H](C)NC(=O)[C@H](Cc2c[nH]c3ccccc23)NC(=O)[C@H](Cc2ccc(O)cc2)NC(=O)[C@H](C(C)C)NC1=O)[C@@H](C)O` (single isomer, unassigned) [compound 139], in the experiment on SJSA-1 cells, the “6.25 μM % Lysed cells (1 h LDH)” value is given as −2%, the “25 μM % Lysed cells (1 h LDH)” value is on record as −1% and the “50 μM % Lysed cells (1 h LDH)” value is reported as −1%. Also, in the experiment with Caspase 3, the “caspase 0.3 μM” value amounted to 1, the “caspase 3 μM” value is given as 2, the “caspase 10 μM” value is listed as 9 and the “caspase 30 μM” value was determined as 18.

Regarding `CCCC[C@H](NC(=O)[C@H](C)NC(=O)[C@H](C)NC(=O)[C@]1(C)CCCC=CCCCCCC[C@@](C)(NC(=O)[C@H](Cc2ccccc2)NC(=O)[C@@H](NC(=O)[C@H](CCC(=O)O)NC(C)=O)[C@@H](C)O)C(=O)N[C@@H](C)C(=O)N[C@@H](Cc2ccc(O)cc2)C(=O)N[C@@H](Cc2c[nH]c3ccccc23)C(=O)N[C@@H](C)C(=O)N[C@@H](CCC(N)=O)C(=O)N[C@@H](CC2CCC2)C(=O)N1)C(=O)N[C@@H](C)C(N)=O` [compound 237] (Ac-ETF[R8]AYWAQ[Cba][S5]AA[Nle]A-NH2; staple 4-11), in the experiment with SJSA-1 cells, the “6.25 μM % Lysed cells (1 h LDH)” value is recorded as 0%, the “25 μM % Lysed cells (1 h LDH)” value stood at 7% and the “50 μM % Lysed cells (1 h LDH)” value stood at 55%. Further, in the experiment on Caspase 3, the “caspase 0.3 μM” value is given as 1, the “caspase 3 μM” value was 5, the “caspase 10 μM” value was 9 and the “caspase 30 μM” value turned out to be 15.

For the compound `CC(=O)N[C@@H](CC(C)C)C(=O)N[C@H](C(=O)N[C@@H](Cc1ccccc1)C(=O)N[C@]1(C)CCCCCCC=CCCC[C@@](C)(C(=O)N[C@@H](CO)C(=O)N[C@@H](C)C(=O)N[C@@H](C)C(N)=O)NC(=O)[C@H](C2CCCC2)NC(=O)[C@H](CCC(N)=O)NC(=O)[C@H](C)NC(=O)[C@H](Cc2c[nH]c3ccccc23)NC(=O)[C@H](Cc2ccc(O)cc2)NC(=O)[C@H](CCC(=O)O)NC1=O)[C@@H](C)O` (single isomer, unassigned) [compound 149], in the experiment on SJSA-1 cells, the “6.25 μM % Lysed cells (1 h LDH)” value was determined as 6%, the “25 μM % Lysed cells (1 h LDH)” value is 7% and the “50 μM % Lysed cells (1 h LDH)” value stood at 21%. Moreover, in the experiment on Caspase 3, the “caspase 0.3 μM” value is on record as 1, the “caspase 3 μM” value is recorded as 2, the “caspase 10 μM” value stood at 4 and the “caspase 30 μM” value stood at 10.

As to `CCCC[C@H](NC(=O)[C@H](C)NC(=O)[C@H](CO)NC(=O)[C@]1(C)CCCC=CCCCCCC[C@@](C)(NC(=O)[C@H](Cc2ccccc2)NC(=O)[C@@H](NC(=O)[C@H](CC(C)C)NC(C)=O)[C@@H](C)O)C(=O)N[C@@H](CCC(=O)O)C(=O)N[C@@H](Cc2ccc(O)cc2)C(=O)N[C@@H](Cc2c[nH]c3ccccc23)C(=O)N[C@@H](CO)C(=O)N[C@@H](CCC(N)=O)C(=O)N[C@@H](CC2CCC2)C(=O)N1)C(=O)N[C@@H](C)C(N)=O` [compound 245] (Ac-LTF[R8]EYWSQ[Cba][S5]SA[Nle]A-NH2; staple 4-11), in the experiment with SJSA-1 cells, the “6.25 μM % Lysed cells (1 h LDH)” value is on record as 1%, the “25 μM % Lysed cells (1 h LDH)” value was 11% and the “50 μM % Lysed cells (1 h LDH)” value was found to be 56%. Moreover, in the experiment with Caspase 3, the “caspase 0.3 μM” value turned out to be 1, the “caspase 3 μM” value turned out to be 3, the “caspase 10 μM” value was 9 and the “caspase 30 μM” value is given as 16.

As for `CC(=O)N[C@@H](CC(C)C)C(=O)N[C@H](C(=O)N[C@@H](Cc1ccccc1)C(=O)N[C@]1(C)CCCCCCC=CCCC[C@@](C)(C(=O)N[C@@H](CO)C(=O)N[C@@H](C)C(=O)N[C@@H](C)C(N)=O)NC(=O)[C@H](CC(C)C)NC(=O)[C@H](C)NC(=O)[C@H](C)NC(=O)[C@H](Cc2c[nH]c3ccccc23)NC(=O)[C@H](Cc2c[nH]cn2)NC(=O)[C@H](C)NC1=O)[C@@H](C)O` [compound 197] (Ac-LTF[R8]AHWAAL[S5]SAA-NH2; staple 4-11), in the experiment with SJSA-1 cells, the “6.25 μM % Lysed cells (1 h LDH)” value amounted to 1%, the “25 μM % Lysed cells (1 h LDH)” value was −1% and the “50 μM % Lysed cells (1 h LDH)” value is −2%. In the experiment with Caspase 3, the “caspase 0.3 μM” value is recorded as 1, the “caspase 3 μM” value turned out to be 1, the “caspase 10 μM” value is reported as 10 and the “caspase 30 μM” value came out at 20.

Consider `CC(=O)N[C@@H](CC(C)C)C(=O)N[C@H](C(=O)N[C@@H](Cc1ccccc1)C(=O)N[C@]1(C)CCCCCCC=CCCC[C@@](C)(C(=O)N[C@@H](C)C(=O)N[C@@H](C)C(=O)N[C@@H](C)C(=O)N[C@@H](C)C(=O)N[C@@H](C)C(=O)N[C@@H](C)C(=O)N[C@H](C)C(N)=O)NC(=O)[C@H](CC(C)C)NC(=O)[C@H](CCC(N)=O)NC(=O)[C@H](C)NC(=O)[C@H](Cc2c[nH]c3ccccc23)NC(=O)[C@H](Cc2ccc(O)cc2)NC(=O)[C@H](CCC(=O)O)NC1=O)[C@@H](C)O` (single isomer, unassigned) [compound 343], for which, in the experiment on SJSA-1 cells, the “6.25 μM % Lysed cells (1 h LDH)” value amounted to 0%, the “25 μM % Lysed cells (1 h LDH)” value turned out to be 0% and the “50 μM % Lysed cells (1 h LDH)” value was found to be 0%. In the experiment with Caspase 3, the “caspase 0.3 μM” value was 1, the “caspase 1 μM” value worked out at 1, the “caspase 3 μM” value stood at 2 and the “caspase 10 μM” value came to 5. For the same compound, in the experiment with Caspase 3, the “caspase 30 μM” value turned out to be 29.

For `CCCC[C@H](NC(=O)[C@H](C)NC(=O)[C@H](CO)NC(=O)[C@]1(C)CCCC=CCCCCCC[C@@](C)(NC(=O)[C@H](Cc2ccc(F)c(F)c2)NC(=O)[C@@H](NC(=O)[C@H](CC(C)C)NC(C)=O)[C@@H](C)O)C(=O)N[C@@H](CCC(=O)O)C(=O)N[C@@H](Cc2ccc(O)cc2)C(=O)N[C@@H](Cc2c[nH]c3ccccc23)C(=O)N[C@@H](C)C(=O)N[C@@H](CCC(N)=O)C(=O)N[C@@H](CC2CCC2)C(=O)N1)C(=O)N[C@@H](C)C(N)=O` [compound 243] (Ac-LT[Phe(3,4-F2)][R8]EYWAQ[Cba][S5]SA[Nle]A-NH2; staple 4-11), in the experiment with SJSA-1 cells, the “6.25 μM % Lysed cells (1 h LDH)” value is on record as 4%, the “25 μM % Lysed cells (1 h LDH)” value was determined as 39% and the “50 μM % Lysed cells (1 h LDH)” value was found to be 64%. Moreover, in the experiment on Caspase 3, the “caspase 0.3 μM” value is listed as 1, the “caspase 3 μM” value came to 2, the “caspase 10 μM” value was 5 and the “caspase 30 μM” value was 23.
